ChEMBL document CHEMBL1134322, “A novel approach for the development of selective Cdk4 inhibitors: library design based on locations of Cdk4 specific amino acid residues” (J Med Chem, 2001)

Key:
[1] = Inhibition of human recombinant cyclin D2-CDK4
[2] = molecular target: Cyclin-dependent kinase 2/cyclin A (Homo sapiens, UniProt P24941); assay: Inhibition of human recombinant cyclin A-CDK2; format: protein-complex assay
[3] = molecular target: Cyclin-dependent kinase 2 and 4 (CDK2 and CDK4) (Homo sapiens) (UniProt P11802+P24941); assay: Selectivity for CDK4 over CDK2; format: protein assay
[4] = molecular target: Vascular endothelial growth factor receptor 1 (Homo sapiens, UniProt P17948); assay: Inhibition of Flt-1 tyrosine kinase.
Vascular endothelial growth factor receptor 1, sequence (P17948 whole entry): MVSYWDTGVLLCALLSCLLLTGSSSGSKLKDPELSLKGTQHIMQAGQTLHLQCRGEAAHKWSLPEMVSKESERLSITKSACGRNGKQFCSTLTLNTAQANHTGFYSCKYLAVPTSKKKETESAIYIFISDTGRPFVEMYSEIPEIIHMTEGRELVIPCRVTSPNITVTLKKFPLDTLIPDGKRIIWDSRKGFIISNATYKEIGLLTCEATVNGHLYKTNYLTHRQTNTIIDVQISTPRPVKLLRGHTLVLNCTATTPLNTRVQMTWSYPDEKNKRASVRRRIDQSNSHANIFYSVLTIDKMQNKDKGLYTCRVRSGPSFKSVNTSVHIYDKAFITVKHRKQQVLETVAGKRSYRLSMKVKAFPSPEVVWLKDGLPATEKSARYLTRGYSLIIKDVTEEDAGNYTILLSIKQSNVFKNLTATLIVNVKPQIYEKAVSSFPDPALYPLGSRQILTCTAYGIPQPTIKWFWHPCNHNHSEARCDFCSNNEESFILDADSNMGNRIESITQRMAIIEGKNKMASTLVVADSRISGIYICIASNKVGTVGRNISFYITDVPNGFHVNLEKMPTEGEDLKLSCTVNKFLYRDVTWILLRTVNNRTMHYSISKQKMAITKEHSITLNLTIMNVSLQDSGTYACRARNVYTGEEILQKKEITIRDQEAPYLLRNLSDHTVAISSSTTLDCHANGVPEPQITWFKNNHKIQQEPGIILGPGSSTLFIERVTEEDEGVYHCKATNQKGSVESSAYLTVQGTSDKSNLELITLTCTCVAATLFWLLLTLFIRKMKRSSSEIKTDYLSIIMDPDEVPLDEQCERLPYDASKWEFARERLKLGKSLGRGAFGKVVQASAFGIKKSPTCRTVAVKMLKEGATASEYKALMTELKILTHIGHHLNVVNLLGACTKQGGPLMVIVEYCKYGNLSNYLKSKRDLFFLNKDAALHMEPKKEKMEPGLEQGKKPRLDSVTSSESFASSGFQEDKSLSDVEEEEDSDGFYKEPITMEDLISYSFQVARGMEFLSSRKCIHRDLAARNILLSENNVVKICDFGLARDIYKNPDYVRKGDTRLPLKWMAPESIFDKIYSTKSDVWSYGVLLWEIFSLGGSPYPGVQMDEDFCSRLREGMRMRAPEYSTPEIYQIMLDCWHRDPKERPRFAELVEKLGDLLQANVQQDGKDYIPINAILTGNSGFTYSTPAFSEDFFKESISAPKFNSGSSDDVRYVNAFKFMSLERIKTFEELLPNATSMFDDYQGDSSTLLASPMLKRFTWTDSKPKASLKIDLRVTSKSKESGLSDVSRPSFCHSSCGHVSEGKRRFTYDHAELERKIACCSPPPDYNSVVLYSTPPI

[5] = molecular target: Fibroblast growth factor receptor 1 (Homo sapiens, UniProt P11362); assay: Inhibition of fibroblast growth factor receptor 1
[6] = molecular target: Platelet-derived growth factor receptor beta (Homo sapiens, UniProt P09619); assay: Inhibition of PDGFRbeta tyrosine kinase.
Platelet-derived growth factor receptor beta, sequence (P09619 whole entry): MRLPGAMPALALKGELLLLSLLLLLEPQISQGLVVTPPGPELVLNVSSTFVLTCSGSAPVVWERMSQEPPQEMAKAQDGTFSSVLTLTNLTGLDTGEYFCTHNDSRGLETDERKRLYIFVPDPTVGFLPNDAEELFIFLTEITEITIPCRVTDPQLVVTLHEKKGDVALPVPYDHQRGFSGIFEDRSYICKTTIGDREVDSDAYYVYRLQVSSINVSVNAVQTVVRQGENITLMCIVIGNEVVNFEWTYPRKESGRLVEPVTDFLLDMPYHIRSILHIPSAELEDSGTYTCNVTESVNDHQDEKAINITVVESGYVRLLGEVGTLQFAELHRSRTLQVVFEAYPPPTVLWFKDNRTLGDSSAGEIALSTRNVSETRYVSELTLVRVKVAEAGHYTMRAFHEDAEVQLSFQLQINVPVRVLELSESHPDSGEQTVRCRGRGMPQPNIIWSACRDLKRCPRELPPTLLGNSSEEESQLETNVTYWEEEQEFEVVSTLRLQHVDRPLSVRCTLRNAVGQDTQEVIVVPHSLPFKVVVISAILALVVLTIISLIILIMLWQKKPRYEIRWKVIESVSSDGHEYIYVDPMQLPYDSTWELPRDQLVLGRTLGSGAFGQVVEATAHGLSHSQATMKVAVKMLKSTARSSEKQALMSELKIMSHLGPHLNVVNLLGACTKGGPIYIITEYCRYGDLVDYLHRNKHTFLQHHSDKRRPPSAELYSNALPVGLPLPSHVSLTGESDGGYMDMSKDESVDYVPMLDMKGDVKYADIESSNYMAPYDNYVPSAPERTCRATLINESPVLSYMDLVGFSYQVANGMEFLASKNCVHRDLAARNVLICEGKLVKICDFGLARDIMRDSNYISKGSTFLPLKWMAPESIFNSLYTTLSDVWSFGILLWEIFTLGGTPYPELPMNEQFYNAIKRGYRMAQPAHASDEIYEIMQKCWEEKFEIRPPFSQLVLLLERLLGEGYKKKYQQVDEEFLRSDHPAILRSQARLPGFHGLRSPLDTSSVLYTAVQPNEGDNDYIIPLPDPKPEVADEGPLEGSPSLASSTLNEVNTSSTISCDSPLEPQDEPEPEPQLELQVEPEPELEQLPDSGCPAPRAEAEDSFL

[7] = molecular target: Mitogen-activated protein kinase 3 (Homo sapiens, UniProt P27361); assay: Inhibition of ERK1 ser/thr kinase.
Mitogen-activated protein kinase 3, sequence (P27361 whole entry): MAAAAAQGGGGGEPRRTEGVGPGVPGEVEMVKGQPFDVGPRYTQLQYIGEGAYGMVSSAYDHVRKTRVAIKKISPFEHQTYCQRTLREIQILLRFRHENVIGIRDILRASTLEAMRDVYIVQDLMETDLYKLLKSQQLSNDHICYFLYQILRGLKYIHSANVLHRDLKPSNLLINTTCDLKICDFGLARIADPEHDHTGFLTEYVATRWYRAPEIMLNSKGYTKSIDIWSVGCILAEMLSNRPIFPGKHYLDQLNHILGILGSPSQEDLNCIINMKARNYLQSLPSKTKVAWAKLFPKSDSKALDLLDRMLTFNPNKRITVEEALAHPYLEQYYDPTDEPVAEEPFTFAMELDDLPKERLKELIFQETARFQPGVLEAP

[8] = molecular target: Mitogen-activated protein kinase 14 (Homo sapiens, UniProt Q16539); assay: Inhibition of p38-alpha ser/thr kinase.
[9] = Inhibition of cyclin D2-CDK4 ser/thr kinase.; design: species or system Homo sapiens
[10] = molecular target: Tyrosine-protein kinase Lck (Homo sapiens, UniProt P06239); assay: Inhibition of Lck tyrosine kinase.
Tyrosine-protein kinase Lck, sequence (P06239 whole entry): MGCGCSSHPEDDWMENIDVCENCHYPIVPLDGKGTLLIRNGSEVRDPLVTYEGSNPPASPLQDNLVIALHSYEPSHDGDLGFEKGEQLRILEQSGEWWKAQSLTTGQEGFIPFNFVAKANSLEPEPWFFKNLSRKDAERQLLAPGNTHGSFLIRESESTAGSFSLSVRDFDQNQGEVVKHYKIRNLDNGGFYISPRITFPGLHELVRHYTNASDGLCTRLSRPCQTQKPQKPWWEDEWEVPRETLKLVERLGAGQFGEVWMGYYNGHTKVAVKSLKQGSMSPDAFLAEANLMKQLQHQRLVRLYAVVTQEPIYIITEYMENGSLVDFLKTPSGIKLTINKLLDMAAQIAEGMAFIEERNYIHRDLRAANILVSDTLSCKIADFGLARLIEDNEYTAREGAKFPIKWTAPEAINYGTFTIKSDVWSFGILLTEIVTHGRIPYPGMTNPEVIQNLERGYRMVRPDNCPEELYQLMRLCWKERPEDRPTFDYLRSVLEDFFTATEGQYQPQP

CDK6/cyclin D1 = CDK6/cyclin D1 (Homo sapiens, UniProt Q00534); assay: Inhibition of cyclin D1-CDK6 ser/thr kinase.; format: protein-complex assay
CDK6/cyclin D1, sequence (P24385 whole entry): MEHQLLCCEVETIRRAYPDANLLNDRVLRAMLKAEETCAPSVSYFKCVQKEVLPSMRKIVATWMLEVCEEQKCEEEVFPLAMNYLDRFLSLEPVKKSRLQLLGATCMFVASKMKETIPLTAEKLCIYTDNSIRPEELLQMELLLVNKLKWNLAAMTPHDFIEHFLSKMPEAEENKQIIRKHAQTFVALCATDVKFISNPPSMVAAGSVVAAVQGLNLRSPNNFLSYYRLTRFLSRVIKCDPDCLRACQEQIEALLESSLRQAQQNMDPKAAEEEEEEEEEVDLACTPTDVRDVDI
CDK6/cyclin D1, sequence (Q00534 whole entry): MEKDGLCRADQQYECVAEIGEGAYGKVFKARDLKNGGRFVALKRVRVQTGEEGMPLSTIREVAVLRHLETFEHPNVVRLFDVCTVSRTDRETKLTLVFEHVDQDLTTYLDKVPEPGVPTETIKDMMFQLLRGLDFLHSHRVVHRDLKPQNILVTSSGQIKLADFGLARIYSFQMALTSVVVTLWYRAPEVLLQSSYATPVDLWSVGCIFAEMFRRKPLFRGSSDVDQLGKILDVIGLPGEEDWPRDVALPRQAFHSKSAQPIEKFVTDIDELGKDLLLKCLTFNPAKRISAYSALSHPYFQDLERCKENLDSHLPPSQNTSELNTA

[11] = molecular target: cAMP-dependent protein kinase (PKA) (Homo sapiens, UniProt P22694+P17612+P22612); assay: Inhibition of PKA ser/thr kinase.; format: protein assay
[12] = molecular target: T1, Tyrosine-protein kinase ZAP-70 (Homo sapiens, UniProt P43403); assay: Inhibition of Zap70 tyrosine kinase.
T1 sequence (P43403 whole entry): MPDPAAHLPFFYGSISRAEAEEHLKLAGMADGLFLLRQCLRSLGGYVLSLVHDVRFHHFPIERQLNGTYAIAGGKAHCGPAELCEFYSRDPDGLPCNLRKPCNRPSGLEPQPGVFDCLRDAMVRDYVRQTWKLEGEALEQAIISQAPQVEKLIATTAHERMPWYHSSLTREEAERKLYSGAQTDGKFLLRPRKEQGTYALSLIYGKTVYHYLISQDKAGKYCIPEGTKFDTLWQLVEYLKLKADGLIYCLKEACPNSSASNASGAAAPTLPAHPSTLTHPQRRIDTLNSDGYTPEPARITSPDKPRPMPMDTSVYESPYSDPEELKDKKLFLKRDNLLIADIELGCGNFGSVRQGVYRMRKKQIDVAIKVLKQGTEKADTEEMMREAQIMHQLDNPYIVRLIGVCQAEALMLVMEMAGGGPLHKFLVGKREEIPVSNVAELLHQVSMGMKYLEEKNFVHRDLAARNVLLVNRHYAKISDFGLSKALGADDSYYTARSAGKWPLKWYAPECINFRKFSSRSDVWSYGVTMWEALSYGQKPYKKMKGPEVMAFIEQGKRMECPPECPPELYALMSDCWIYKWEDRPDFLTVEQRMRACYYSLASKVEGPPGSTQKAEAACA

Protein kinase C (PKC) = assay: Inhibition of PKC ser/thr kinase.; format: protein assay, Homo sapiens
[13] = molecular target: RAC-alpha serine/threonine-protein kinase (Homo sapiens, UniProt P31749); assay: Inhibition of PKBalpha (Akt1) ser/thr kinase.
RAC-alpha serine/threonine-protein kinase, sequence (P31749 whole entry): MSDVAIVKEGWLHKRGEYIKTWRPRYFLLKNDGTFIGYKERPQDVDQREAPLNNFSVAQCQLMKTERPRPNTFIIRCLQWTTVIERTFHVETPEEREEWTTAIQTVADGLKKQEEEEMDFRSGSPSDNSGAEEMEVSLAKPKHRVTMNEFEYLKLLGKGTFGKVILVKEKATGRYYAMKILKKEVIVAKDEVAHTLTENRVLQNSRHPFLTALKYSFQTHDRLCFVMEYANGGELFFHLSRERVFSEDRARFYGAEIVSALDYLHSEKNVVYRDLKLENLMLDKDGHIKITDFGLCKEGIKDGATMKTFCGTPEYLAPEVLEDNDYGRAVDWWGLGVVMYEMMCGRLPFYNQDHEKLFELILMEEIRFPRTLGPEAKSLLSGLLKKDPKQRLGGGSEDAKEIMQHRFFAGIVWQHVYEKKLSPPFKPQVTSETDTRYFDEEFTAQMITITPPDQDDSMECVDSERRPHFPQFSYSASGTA

[14] = molecular target: Proto-oncogene tyrosine-protein kinase Src (Homo sapiens, UniProt P12931); assay: Inhibition of Src tyrosine kinase.
Proto-oncogene tyrosine-protein kinase Src, sequence (P12931 2-536 limits assumed): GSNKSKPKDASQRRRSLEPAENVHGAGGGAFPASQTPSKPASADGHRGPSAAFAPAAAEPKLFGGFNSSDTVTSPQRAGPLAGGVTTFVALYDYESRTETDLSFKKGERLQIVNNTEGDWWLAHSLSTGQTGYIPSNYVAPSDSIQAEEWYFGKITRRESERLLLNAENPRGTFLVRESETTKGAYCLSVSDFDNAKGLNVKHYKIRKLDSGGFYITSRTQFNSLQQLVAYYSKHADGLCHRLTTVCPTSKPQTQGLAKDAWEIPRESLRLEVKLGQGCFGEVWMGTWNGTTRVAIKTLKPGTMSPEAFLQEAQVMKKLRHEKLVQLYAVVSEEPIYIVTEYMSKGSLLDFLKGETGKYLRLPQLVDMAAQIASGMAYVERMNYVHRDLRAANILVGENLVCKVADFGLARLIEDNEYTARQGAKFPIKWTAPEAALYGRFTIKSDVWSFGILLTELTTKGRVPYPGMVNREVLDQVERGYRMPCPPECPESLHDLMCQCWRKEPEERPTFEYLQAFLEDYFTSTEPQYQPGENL

[15] = molecular target: Dual specificity mitogen-activated protein kinase kinase 1 (Homo sapiens, UniProt Q02750); assay: Inhibition of mitogen activated protein kinase kinase 1
CaM kinase II = CaM kinase II (Homo sapiens, UniProt Q13557+Q13555+Q13554+Q9UQM7); assay: Inhibition of calcium/calmodulin-dependent protein kinase type II; format: protein assay
Homo sapiens = species on record: Homo sapiens; assay: Selectivity for CDK4 over CDK1
[16] = molecular target: Cyclin-dependent kinase 1/cyclin B (Homo sapiens, UniProt P06493); assay: Inhibition of human recombinant cyclin B-CDK1; format: protein-complex assay

Row | Structure (SMILES) | IC50 [1] [µM] | IC50 [2] [µM] | Selectivity [3] | other results
1 | O=C(Nc1cc[nH]n1)Nc1cccc2c1[C@H]1CCCN1C2=O | 0.021 | – | – | –
2 | CC(C)NCc1cc(NC(=O)Nc2cccc3c2C2CCCN2C3=O)[nH]n1 (stereo unspecified) | 0.13 | 17 | 130 | –
3 | O=C(Nc1cc(CNC2CCCCC2)[nH]n1)Nc1cccc2c1C1CCCN1C2=O (stereo unspecified) | 0.72 | 20 | 27 | –
4 | O=C(Nc1ccccn1)Nc1cccc2c1[C@H]1CCCN1C2=O | – | – | – | IC50 [4]: 2.8 µM; IC50 [5]: 6.7 µM; IC50 [6]: 5 µM; IC50 [7]: > 10 µM; IC50 [8]: > 10 µM; IC50 [9]: 0.042 µM; IC50 [10]: 2.3 µM; IC50 (CDK6/cyclin D1): 0.071 µM; IC50 [11]: > 20 µM; IC50 [12]: > 10 µM; IC50 (Protein kinase C (PKC)): > 20 µM; IC50 [13]: > 10 µM; IC50 [14]: > 5 µM; IC50 [15]: > 10 µM; IC50 (CaM kinase II): > 10 µM
5 | O=C(Nc1cc[nH]n1)Nc1cccc2c1[C@@H]1CCCN1C2=O | 0.029 | – | – | –
6 | O=C(Nc1cc([C@@H]2CCCN2)[nH]n1)Nc1cccc2c1[C@@H]1CCCN1C2=O | 0.21 | – | 120 | Selectivity (Homo sapiens): 130
7 | O=C(Nc1cc([C@@H]2CCCN2)n[nH]1)Nc1cccc2c1[C@@H]1CCCN1C2=O | – | 25 | – | IC50 [16]: 28 µM
8 | O=C(Nc1cc(CNC2CCCC2)[nH]n1)Nc1cccc2c1C1CCCN1C2=O (stereo unspecified) | 0.065 | – | 150 | –
9 | CCCNCc1cc(NC(=O)Nc2cccc3c2C2CCCN2C3=O)[nH]n1 (stereo unspecified) | 0.16 | 12 | 75 | –
10 | O=C(Nc1cc(CN2CCCCC2)[nH]n1)Nc1cccc2c1C1CCCN1C2=O (stereo unspecified) | 0.25 | 12 | 48 | –
11 | O=C(Nc1cc(CNC2CCCC2)n[nH]1)Nc1cccc2c1C1CCCN1C2=O (stereo unspecified) | – | 9.7 | – | –
12 | O=C(Nc1cc([C@@H]2CCCN2)[nH]n1)Nc1cccc2c1[C@H]1CCCN1C2=O | 0.22 | 25 | 110 | IC50 [16]: 31 µM; Selectivity (Homo sapiens): 140
13 | O=C(Nc1cc(CN2CCCC2)[nH]n1)Nc1cccc2c1C1CCCN1C2=O (stereo unspecified) | 0.47 | 7.5 | 16 | –
14 | CNCc1cc(NC(=O)Nc2cccc3c2C2CCCN2C3=O)[nH]n1 (stereo unspecified) | 0.29 | 14 | 48 | –
15 | CC(C)(C)NCc1cc(NC(=O)Nc2cccc3c2C2CCCN2C3=O)[nH]n1 (stereo unspecified) | 0.056 | 9.8 | 180 | –
